Data taken from patent US11986532B2 (Arvinas Operations, Inc., priority 2021, dated 2024).
Where two headings read alike, the source gives them in different places.

Target: T1, BCL6 (Homo sapiens, UniProt P41182)
T1 construct: endogenous in cells; host or cells: T47D breast cancer epithelial cells
Assay: Immunofluorescence protocol for high content imaging of BCL6 (degradation) in T47D cells, 3 days compound treatment
Format: cell-based
Settings: for Dmax: read-out: Mean Dmax (%)** category; for DC50: read-out: Mean DC50 (nM)* category
Method in brief: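 T47D, RPMI1640/10% FBS; cpd 11-pt 3-fold, top 0.1 or 1 μM final; 3 d, 37° C. Fix 4% PFA, perm 0.1% Triton, block 3% BSA; anti-BCL6 1:300 o/n 4° C; Alexa-488 2°, CellMask-647, Hoechst. Imaged 10×, 4 fields/well.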

[1] = T47D cells, 3 days compound treatment

| Structure (SMILES) | Dmax (T47D) | DC50 | DC50 [1] | Dmax [1] |
| --- | --- | --- | --- | --- |
| CNC(=O)COc1cc2cc(Nc3nc(N4CCC(O[C@H]5C[C@H](N6CCC(c7ccc8c(c7F)CN(C7CCC(=O)NC7=O)C8=O)CC6)C5)CC4)ncc3Cl)ccc2n(CC(C)C)c1=O (some centres unmarked) [Compound 425, 2-({6-[(5-chloro-2-{4-[(1r,3r)-3-{4-[2-(2,6-dioxopiperidin-3-yl)-4-fluoro-1-oxo-2,3-dihydro-1H-isoindol-5-yl]piperidin-1-yl}cyclobutoxy]piperidin-1-yl}pyrimidin-4-yl)amino]-1-(2-methylpropyl)-2-oxo-1,2-dihydroquinolin-3-yl}oxy)-N-methylacetamide] | ≥ 70% | < 10 nM |  |  |
| CNC(=O)COc1cc2cc(Nc3nc(N4CCC5(CCN(CC6(F)CCN(c7cccc8c7CN(C7CCC(=O)NC7=O)C8=O)CC6)CC5)CC4)ncc3Cl)ccc2n(C(C)C)c1=O (centres unmarked) [Compound 95, 2-{[6-({5-chloro-2-[9-({1-[2-(2,6-dioxopiperidin-3-yl)-1-oxo-2,3-dihydro-1H-isoindol-4-yl]-4-fluoropiperidin-4-yl}methyl)-3,9-diazaspiro [5.5]undecan-3-yl]pyrimidin-4-yl}amino)-2-oxo-1-(propan-2-yl)-1,2-dihydroquinolin-3-yl]oxy}-N-methylacetamide] |  |  | < 10 nM | 50 to 70% |
| CNC(=O)COc1cc2cc(Nc3nc(N4CCC(OC5CN([C@H]6CC[C@H](c7ccc8c(c7)C(=O)N(C7CCC(=O)NC7=O)C8=O)CC6)C5)CC4)ncc3Cl)ccc2n(C(C)C)c1=O (some centres unmarked) [Compound 341, 2-{[6-({5-chloro-2-[4-({1-[(1r,4r)-4-[2-(2,6-dioxopiperidin-3-yl)-1,3-dioxo-2,3-dihydro-1H-isoindol-5-yl]cyclohexyl]azetidin-3-yl}oxy)piperidin-1-yl]pyrimidin-4-yl}amino)-2-oxo-1-(propan-2-yl)-1,2-dihydroquinolin-3-yl]oxy}-N-methylacetamide] | 50 to 70% | 10 to 50 nM |  |  |
| CNC(=O)COc1cc2cc(Nc3nc(N4CCC(O[C@H]5C[C@H](N6CCC7(CCN(c8ccc9c(c8)C(=O)N(C8CCC(=O)NC8=O)C9=O)CC7)C6)C5)CC4)ncc3Cl)ccc2n(C(C)C)c1=O (some centres unmarked) [Compound 362, 2-({6-[(5-chloro-2-{4-[(1r,3r)-3-{8-[2-(2,6-dioxopiperidin-3-yl)-1,3-dioxo-2,3-dihydro-1H-isoindol-5-yl]-2,8-diazaspiro [4.5]decan-2-yl}cyclobutoxy]piperidin-1-yl}pyrimidin-4-yl)amino]-2-oxo-1-(propan-2-yl)-1,2-dihydroquinolin-3-yl}oxy)-N-methylacetamide] | ≥ 70% | 10 to 50 nM |  |  |
| CNC(=O)COc1cc2cc(Nc3nc(N4CCN(C(C)(C)C5CCN(c6ccc7c(c6F)CN(C6CCC(=O)NC6=O)C7=O)CC5)CC4)ncc3Cl)ccc2n(C(C)C)c1=O (centres unmarked) [Compound 89, 2-{[6-({5-chloro-2-[4-(2-{1-[2-(2,6-dioxopiperidin-3-yl)-4-fluoro-1-oxo-2,3-dihydro-1H-isoindol-5-yl]piperidin-4-yl}propan-2-yl)piperazin-1-yl]pyrimidin-4-yl}amino)-2-oxo-1-(propan-2-yl)-1,2-dihydroquinolin-3-yl]oxy}-N-methylacetamide] |  |  | < 10 nM | 50 to 70% |
| CNC(=O)COc1cc2cc(Nc3nc(N4CCC(N5CCC56CN(C5CCN(c7ccc8c(c7)C(=O)N(C7CCC(=O)NC7=O)C8=O)CC5)C6)CC4)ncc3Cl)ccc2n(C(C)C)c1=O (centres unmarked) [Compound 220, 2-{[6-({5-chloro-2-[4-(6-{1-[2-(2,6-dioxopiperidin-3-yl)-1,3-dioxo-2,3-dihydro-1H-isoindol-5-yl]piperidin-4-yl}-1,6-diazaspiro[3.3]heptan-1-yl)piperidin-1-yl]pyrimidin-4-yl}amino)-2-oxo-1-(propan-2-yl)-1,2-dihydroquinolin-3-yl]oxy}-N-methylacetamide] | 50 to 70% | 10 to 50 nM |  |  |
| CNC(=O)COc1cc2cc(Nc3nc(N4CCC(O[C@H]5C[C@H](N6CCC(c7ccc8c(c7F)CN(C7CCC(=O)NC7=O)C8=O)CC6)C5)CC4)ncc3Cl)ccc2n(C2CCCCC2)c1=O (some centres unmarked) [Compound 411, 2-({6-[(5-chloro-2-{4-[(1r,3r)-3-{4-[2-(2,6-dioxopiperidin-3-yl)-4-fluoro-1-oxo-2,3-dihydro-1H-isoindol-5-yl]piperidin-1-yl}cyclobutoxy]piperidin-1-yl}pyrimidin-4-yl)amino]-1-cyclohexyl-2-oxo-1,2-dihydroquinolin-3-yl}oxy)-N-methylacetamide] | ≥ 70% | < 10 nM |  |  |
| CNC(=O)COc1cc2cc(Nc3nc(N4CCC5(CC4)CN(C(C)(C)C4CCN(c6cccc7c6CN(C6CCC(=O)NC6=O)C7=O)CC4)C5)ncc3Cl)ccc2n(C(C)C)c1=O (centres unmarked) [Compound 36, 2-{[6-({5-chloro-2-[2-(2-{1-[2-(2,6-dioxopiperidin-3-yl)-1-oxo-2,3-dihydro-1H-isoindol-4-yl]piperidin-4-yl}propan-2-yl)-2,7-diazaspiro [3.5]nonan-7-yl]pyrimidin-4-yl}amino)-2-oxo-1-(propan-2-yl)-1,2-dihydroquinolin-3-yl]oxy}-N-methylacetamide] |  |  | < 10 nM | ≥ 70% |
| CNC(=O)COc1cc2cc(Nc3nc(N4CCC5(CC4)CC(C(=O)N4CCC(c6cccc7c6CN(C6CCC(=O)NC6=O)C7=O)CC4)C5)ncc3Cl)ccc2n(C(C)C)c1=O (centres unmarked) [Compound 19, 2-[(6-{[5-chloro-2-(2-{4-[2-(2,6-dioxopiperidin-3-yl)-1-oxo-2,3-dihydro-1H-isoindol-4-yl]piperidine-1-carbonyl}-7-azaspiro [3.5]nonan-7-yl)pyrimidin-4-yl]amino}-2-oxo-1-(propan-2-yl)-1,2-dihydroquinolin-3-yl)oxy]-N-methylacetamide] |  |  | < 10 nM | 50 to 70% |
| CNC(=O)COc1cc2cc(Nc3nc(N4CCC(O[C@H]5C[C@H](N6CCN(c7ccc8c(c7F)CN([C@H]7CCC(=O)NC7=O)C8=O)CC6)C5)CC4)ncc3Cl)ccc2n(C(C)C)c1=O [Compound 388, 2-({6-[(5-chloro-2-{4-[(1r,3r)-3-(4-{2-[(3S)-2,6-dioxopiperidin-3-yl]-4-fluoro-1-oxo-2,3-dihydro-1H-isoindol-5-yl}piperazin-1-yl)cyclobutoxy]piperidin-1-yl}pyrimidin-4-yl)amino]-2-oxo-1-(propan-2-yl)-1,2-dihydroquinolin-3-yl}oxy)-N-methylacetamide] | 50 to 70% | < 10 nM |  |  |
| CNC(=O)COc1cc2cc(Nc3nc(N4CCC(O[C@H]5C[C@H](N6CCC7(CCN(c8ccc9c(c8)C(=O)N(C8CCC(=O)NC8=O)C9=O)C7)CC6)C5)CC4)ncc3Cl)ccc2n(C(C)C)c1=O (some centres unmarked) [Compound 360, 2-({6-[(5-chloro-2-{4-[(1r,3r)-3-{2-[2-(2,6-dioxopiperidin-3-yl)-1,3-dioxo-2,3-dihydro-1H-isoindol-5-yl]-2,8-diazaspiro[4.5]decan-8-yl}cyclobutoxy]piperidin-1-yl}pyrimidin-4-yl)amino]-2-oxo-1-(propan-2-yl)-1,2-dihydroquinolin-3-yl}oxy)-N-methylacetamide] | 50 to 70% | < 10 nM |  |  |
| CNC(=O)COc1cc2cc(Nc3nc(N4CCC(CN5CCC6(CN(c7cccc8c7CN(C7CCC(=O)NC7=O)C8=O)C6)C(F)(F)C5)CC4)ncc3Cl)ccc2n(C(C)C)c1=O (centres unmarked) [Compound 102, 2-{[6-({5-chloro-2-[4-({2-[2-(2,6-dioxopiperidin-3-yl)-1-oxo-2,3-dihydro-1H-isoindol-4-yl]-5,5-difluoro-2,7-diazaspiro[3.5]nonan-7-yl}methyl)piperidin-1-yl]pyrimidin-4-yl}amino)-2-oxo-1-(propan-2-yl)-1,2-dihydroquinolin-3-yl]oxy}-N-methylacetamide] |  |  | < 10 nM | 50 to 70% |
| CNC(=O)COc1cc2cc(Nc3nc(N4CCC(OC5CCC6(CC5)CN(c5cccc7c5CN(C5CCC(=O)NC5=O)C7=O)C6)CC4)ncc3Cl)ccc2n(C(C)C)c1=O (centres unmarked) [Compound 61, 2-{[6-({5-chloro-2-[4-({2-[2-(2,6-dioxopiperidin-3-yl)-1-oxo-2,3-dihydro-1H-isoindol-4-yl]-2-azaspiro[3.5]nonan-7-yl}oxy)piperidin-1-yl]pyrimidin-4-yl}amino)-2-oxo-1-(propan-2-yl)-1,2-dihydroquinolin-3-yl]oxy}-N-methylacetamide] |  |  | < 10 nM | 50 to 70% |
| CNC(=O)COc1cc2cc(Nc3nc(N4CCC(O[C@H]5C[C@H](N6CC[C@H](c7ccc8c(c7F)CN(C7CCC(=O)NC7=O)C8=O)[C@@H](O)C6)C5)CC4)ncc3Cl)ccc2n(C(C)C)c1=O (stereo partly drawn) [Compound 284, 2-({6-[(5-chloro-2-{4-[(1r,3r)-3-[(3R,4R)-4-[2-(2,6-dioxopiperidin-3-yl)-4-fluoro-1-oxo-2,3-dihydro-1H-isoindol-5-yl]-3-hydroxypiperidin-1-yl]cyclobutoxy]piperidin-1-yl}pyrimidin-4-yl)amino]-2-oxo-1-(propan-2-yl)-1,2-dihydroquinolin-3-yl}oxy)-N-methylacetamide] | 50 to 70% | < 10 nM |  |  |
| CNC(=O)COc1cc2cc(Nc3nc(N4CCC(O[C@H]5C[C@H](N6CC[C@H](c7ccc8c(c7)C(=O)N(C7CCC(=O)NC7=O)C8=O)[C@H](F)C6)C5)CC4)ncc3Cl)ccc2n(C(C)C)c1=O (mixture of isomers) [Compound 118] |  |  | 10 to 50 nM | 50 to 70% |
| [2H]C([2H])([2H])Oc1c(N2CC3(CCC(OC4CCN(c5ncc(Cl)c(Nc6ccc7c(c6)cc(OCC(=O)NC)c(=O)n7C(C)C)n5)CC4)CC3)C2)ccc2c1CN(C1CCC(=O)NC1=O)C2=O (centres unmarked) [Compound 225, 2-((6-((5-chloro-2-(4-((2-(2-(2,6-dioxopiperidin-3-yl)-4-(methoxy-d3)-1-oxoisoindolin-5-yl)-2-azaspiro[3.5]nonan-7-yl)oxy)piperidin-1-yl)pyrimidin-4-yl)amino)-1-isopropyl-2-oxo-1,2-dihydroquinolin-3-yl)oxy)-N-methylacetamide] | ≥ 70% | < 10 nM |  |  |
